Ends that are not written are not given here.
Experiments:
[1] = tested on: A549 cells; experiment: Western blot of CCNH and γ-H2AX, A549 and CCNH-KD A549 cells; assay type: cell-based; details: A549, 10 μM, 4 h
Experimental: (§1) Cells were lysed with cell lysis buffer (Beyotime, #P0013) on ice for 30 min. The supernatant of cell lysate was then collected in a table-top refrigerated centrifuge at 4 °C and 14,000 × g for 10 min. Protein concentration was determined by Pierce™ BCA Protein Assay Kit (Thermo Scientific™, #23227). Antibodies against the following proteins were used for Western blotting analysis: CCNH antibody (CST,Rabbit Source, Cat#2927, 1:1000 dilution), gama-H2AX antibody (CST, Rabbit Source, Cat#97185, 1:1000 dilution), GAPDH (D16H11) XP® Rabbit mAb (CST, Rabbit Source, Cat#5174 S, 1:1000 dilution), Anti-CDK2 (phospho T160) + CDK1 (phospho T161) antibody (Abcam, Rabbit Source, Cat#EPR17621, 1:1000 dilution), Anti-rabbit IgG, HRP-linked Antibody (CST, Goat Source, Cat#7074, 1:5000 dilution), […] Tag (D6W5B) Rabbit mAb (CST, Rabbit Source, Cat#14793, 1:1000 dilution), GFP (4B10) Mouse mAb (CST, Mouse Source, Cat #2955, 1:1000 dilution), Anti-mouse IgG,HRP-linked antibody (CST, Goat Source, Cat#7076, 1:5000 dilution). Membranes were treated with SuperSignal™ West Pico PLUS Chemiluminescent Substrate (Thermo Scientific™, #34577) prior to visualization in the Chemiluminescence Imaging Analysis System (BG-gdsAUTO720, Baygene). GAPDH was used as the loading control.

[2] = target: T1, Cyclin H (CCNH) (Homo sapiens, UniProt P51946); experiment: Surface plasmon resonance (SPR) on BIAcore; details: binding to CCNH; for kon: association rate, read-out: Ka
T1 construct: purchased Sino Biological Inc. Lot; ME12NO2769 (a lot number; catalogue number not given); host or cells: E. coli
T1 sequence (P51946 1-323): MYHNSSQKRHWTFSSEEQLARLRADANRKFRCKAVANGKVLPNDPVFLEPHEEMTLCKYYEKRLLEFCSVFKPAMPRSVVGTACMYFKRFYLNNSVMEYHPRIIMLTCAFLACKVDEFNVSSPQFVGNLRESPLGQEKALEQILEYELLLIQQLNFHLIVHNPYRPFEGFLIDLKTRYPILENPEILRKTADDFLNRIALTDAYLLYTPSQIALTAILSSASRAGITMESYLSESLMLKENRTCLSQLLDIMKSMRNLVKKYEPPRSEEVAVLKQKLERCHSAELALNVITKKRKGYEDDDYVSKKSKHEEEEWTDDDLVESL
Experimental: Recombinant Cyclin H (CCNH) protein with a C-HIS tag (Lot. ME12NO2769, 38.46 kDa) was obtained from Sino Biological Inc. and stored at −80 °C. In short, the cyclin H (Homo sapiens) gene was amplified by PCR and cloned into an expression vector which was transformed into E. coli followed by the selection and establishment of high expression transformants. The protein was purified using immobilized metal ion affinity chromatography and dissolved in PBS (pH 7.4). SPR measurement was performed with Biacore T200 instrument (GE), at 25 °C, with a flow rate of 30 μL/min. CM5 sensor chips, HBS-EP running buffer and the Amine Coupling Kit, including 1-ethyl-3(3-dimethylaminopropyl) carbodiimide hydrochloride (EDC), N-hydroxysuccinimide (NHS), 1.0 M ethanolamine-HCl (pH 8.5) were purchased from GE. The binding properties of candidalysin to CCNH were evaluated upon immobilization of CCNH onto CM5 chip surface in flow cell 2 (FC-2) using Biacore Amine Coupling Kit according to the manufacturer’s instructions. CCNH was diluted to 20 μg/ml in acetate buffer (pH 4.0) in advance and immobilized on the CM5 Chip following the EDC/NHS protocol. The reached immobilized target level was 1200 RU. The reference flow cell (FC-1) was blank-immobilized following the templated procedure. BIAcore measurements were performed starting from a 1:1 serial dilution of candidalysin following the templated multicycle analysis (association time 120 s, dissociation time 150 s, flow 30 μL/min). The SPR measurement for Ece1-II, Ece1-IV, Ece1-V and human cathelicidin (Solarbio, CLP0454) to CCNH were performed with Biacore 8 K instrument (GE) by PBST running buffer, and the other conditions were the same.

[3] = tested on: FaDu cells; experiment: Western blot of CCNH and γ-H2AX, FaDu cells; assay type: cell-based; details: comparison toxins / low-dose Triton X-100
Experimental: as §1

| Molecule | kon [2] | DNA damage (CCNH and γ-H2AX expression) [3] | also measured |
| --- | --- | --- | --- |
| CN(C)C/C=C/C(=O)Nc1ccc(C(=O)Nc2cccc(Nc3ncc(Cl)c(-c4c[nH]c5ccccc45)n3)c2)cc1 [THZ1] |  |  | CCNH and γ-H2AX expression [1]: prominently elevated CCNH and γ-H2AX expression |
| CC[C@H](C)[C@H](NC(=O)[C@H](CO)NC(=O)[C@H](CCC(N)=O)NC(=O)[C@H](CCC(N)=O)NC(=O)[C@@H](NC(=O)CNC(=O)[C@@H](NC(=O)[C@H](C)NC(=O)[C@@H](NC(=O)[C@H](CCCNC(=N)N)NC(=O)[C@H](C)NC(=O)[C@@H](NC(=O)[C@@H](NC(=O)[C@H](CCC(=O)O)NC(=O)[C@@H]1CCCN1C(=O)[C@H](CC(C)C)NC(=O)[C@H](CCCNC(=N)N)NC(=O)[C@@H](NC(=O)[C@@H](NC(=O)[C@H](C)NC(=O)[C@H](CC(N)=O)NC(=O)[C@H](C)NC(=O)[C@@H](NC(=O)[C@H](CC(=O)O)NC(=O)[C@H](CC(=O)O)NC(=O)[C@H](CC(N)=O)NC(=O)[C@H](C)NC(=O)CNC(=O)[C@@H](N)CC(=O)O)C(C)C)C(C)C)C(C)C)[C@@H](C)CC)C(C)C)C(C)C)[C@@H](C)O)C(C)C)C(=O)N[C@@H](CCC(=O)O)C(=O)N[C@@H](CC(N)=O)C(=O)N[C@@H](C)C(=O)N[C@@H](CCCCN)C(=O)N[C@@H](CCCNC(=N)N)C(=O)O [Ece1-V] | 228 M⁻¹ s⁻¹ |  |  |
| CC[C@H](C)[C@H](NC(=O)CNC(=O)[C@H](C)NC(=O)[C@@H](NC(=O)[C@@H](NC(=O)[C@H](CO)NC(=O)[C@H](CC(=O)O)NC(=O)[C@@H](NC(=O)[C@H](CC(=O)O)NC(=O)[C@@H](N)CCC(=O)O)[C@@H](C)CC)C(C)C)C(C)C)C(=O)N[C@H](C(=O)N[C@@H](C)C(=O)N[C@@H](CC(=O)O)C(=O)N[C@@H](CCSC)C(=O)N1CCC[C@H]1C(=O)N[C@@H](Cc1ccccc1)C(=O)N[C@H](C(=O)N[C@H](C(=O)N[C@@H](CCCNC(=N)N)C(=O)N[C@@H](C)C(=O)N[C@H](C(=O)N[C@@H](CC(=O)O)C(=O)N[C@H](C(=O)N[C@@H](C)C(=O)N[C@@H](CCSC)C(=O)N[C@H](C(=O)N[C@@H](CO)C(=O)N[C@H](C(=O)N[C@@H](C)C(=O)N[C@@H](CO)C(=O)N[C@H](C(=O)N[C@@H](CCCCN)C(=O)N[C@@H](CCCNC(=N)N)C(=O)O)[C@@H](C)O)C(C)C)[C@@H](C)O)[C@@H](C)O)C(C)C)C(C)C)C(C)C)[C@@H](C)CC [Ece1-IV] | 49.8 M⁻¹ s⁻¹ |  |  |
| Triton X-100 |  | failed to induce severe DNA damage |  |
| mellitin: pore forming toxin |  | failed to induce severe DNA damage |  |
| FKRIVQRIKDFLRNLVPRTES [Amp] | 3040 M⁻¹ s⁻¹ |  | Kd ([2]; column pK, row KD (M)): 6.26e-05 M |
